From PubChem BioAssay AID1845195 (Molecular Pharmacology Branch, DTP, NCI, 2023)

Test system: 156681-154-R-J1 tumor spheroid viability
Assay: Anticancer human tumor 156681-154-R-J1 patient-derived melanoma cell line growth inhibition
Details: spheroids with HUVEC and MSC; for IC50: curve of first compound; for viability, T/C: stronger effect = lower value
From the text: Multicellular complex tumor spheroid response to DNA repair inhibitors in combination with DNA-damaging drugs
This study explores the anticancer activities of DNA-damaging drugs and inhibitors of DNA damage repair, both as single agents and in combinations. Complex tumor spheroids comprised of malignant cells, endothelial cells and mesenchymal stem cells served as an in vitro model for human solid tumors. This model system incorporates physiologically relevant features and patient-derived or established malignant cell lines with clinically relevant genetic alterations from many tumor types. Twenty-six patient-derived or established malignant cell lines were evaluated representing sarcoma, melanoma, small cell lung cancer (SCLC), non-small cell lung cancer (NSCLC), as well as bladder, ovarian and pancreatic cancers. The concentration ranges selected for each drug and investigational agent were based upon clinically achievable concentrations if the clinical Cmax of the agent was known.
Compounds. The drugs and compounds olaparib (NSC753686), talazoparib (NSC767125), berzosertib (NSC777718), elimusertib (NSC800525), nedisertib (NSC802822), VX-984 (NSC792969), AZD-1390 (NSC803789), temozolomide (NSC362856), topotecan (NSC609699), trabectedin (NSC813783), staurosporine (NSC755774), and gemcitabine (NSC613327) were obtained from the National Cancer Institute (NCI) Developmental Therapeutics Program Chemical Repository. The FDA-approved anticancer drug set is available from the Developmental Therapeutics Program at https://dtp.cancer.gov/organization/dscb/obtaining/available_plates.htm. […] The stock solutions were prepared in dimethyl sulfoxide (DMSO, Sigma-Aldrich, St. Louis, MO, cat. D2650) at 400-fold the tested concentration and stored at -70 degrees C. Prior to their use, the stock solutions were diluted in fresh medium and the final DMSO concentration in the assay was 0.25% (v/v). All drugs and investigational agents were tested over a range starting from a high concentration at or near the clinical Cmax and decreasing in half-log increments. If the clinical Cmax for an agent had not been determined, the highest concentration tested was 10 microM.
Cell Lines. The patient-derived cancer cell (PDC) lines: 156681-154-R-J1-PDC, 283228-195-R-J1-PDC, 287954-098-R-J1-PDC, 292921-168-R-J2-PDC, 349418-098-R-PDC, 425362-245-T-J1-PDC, 556581-035-R-J1-PDC, and BL0293-F563-PDC were received from the NCI Patient-Derived Models Repository (PDMR, https://pdmr.cancer.gov). The established cell lines HS-SY-2 (RRID:CVCL_8719), MPNST, and SYO-1 (RRID:CVCL_7146) were obtained from the Sloan Kettering Institute. The alveolar soft parts sarcoma cell line ASPS-1 (RRID:CVCL_S738) was established at the NCI and grown from internal seed stocks. The following established cell lines were purchased from the American Type Culture Collection (ATCC, Manassas, VA): G-401 (ATCC, cat. CRL-1441, RRID:CVCL_0270), SW982 (ATCC, cat. HTB-93, RRID:CVCL_1734), VA-ES-BJ (ATCC, cat. CRL-2138, RRID:CVCL_1785), NCI-H719 (ATCC, cat. CRL-5837, RRID:CVCL_1582), NCI-H196 (ATCC, cat. CRL-5823, RRID:CVCL_1509), NCI-H841 (ATCC, cat. CRL-5845, RRID:CVCL_1595), NCI-H1618 (ATCC, cat. CRL-5879, RRID:CVCL_1480), NCI-H1876 (ATCC, cat. CRL-5902, RRID:CVCL_1503), DMS 114 (ATCC, cat. CRL-2066; RRID:CVCL_1174), NCI-H211 (ATCC, cat. CRL-5824; RRID:CVCL_1529), and SW 1271 (ATCC, cat. CRL-2177, RRID:CVCL_1716). The small cell lung cancer cell line COR-L88 was purchased from Sigma-Aldrich (cat. 92031917-1VL, RRID:CVCL_1141). The non-small cell lung cancer cell lines NCI-H226 (RRID:CVCL_1544) and NCI-H322M (RRID:CVCL_1557) were established at the NCI and grown from internal seed stocks. Pooled donor human umbilical vein endothelial cells (HUVEC, Lonza, cat. CC-2519) and human mesenchymal stem cells (hMSC, Lonza, cat. PT-2501) were purchased from Lonza (Walkersville, MD).
Cell Culture. All cells were maintained in an incubator at 37 degrees C and 5% CO2 with 95% humidity. […]

[1] = second compound 30 pM, first compound 0.0316 µM
[2] = second compound 30 pM, first compound 0.1 µM
[3] = second compound 30 pM, first compound 0.316 µM
[4] = second compound 30 pM, first compound 1 µM
[5] = second compound 30 pM, first compound 3.16 µM
[6] = second compound 30 pM, first compound 10 µM
[7] = second compound 94.9 pM, first compound 0.0316 µM
[8] = second compound 94.9 pM, first compound 0.1 µM
[9] = second compound 94.9 pM, first compound 0.316 µM
[10] = second compound 94.9 pM, first compound 1 µM
[11] = second compound 94.9 pM, first compound 3.16 µM
[12] = second compound 94.9 pM, first compound 10 µM
[13] = second compound 0.0003 µM, first compound 0.0316 µM
[14] = second compound 0.0003 µM, first compound 0.1 µM
[15] = second compound 0.0003 µM, first compound 0.316 µM
[16] = second compound 0.0003 µM, first compound 1 µM
[17] = second compound 0.0003 µM, first compound 3.16 µM
[18] = second compound 0.0003 µM, first compound 10 µM
[19] = second compound 0.000949 µM, first compound 0.0316 µM
[20] = second compound 0.000949 µM, first compound 0.1 µM
[21] = second compound 0.000949 µM, first compound 0.316 µM
[22] = second compound 0.000949 µM, first compound 1 µM
[23] = second compound 0.000949 µM, first compound 3.16 µM
[24] = second compound 0.000949 µM, first compound 10 µM
[25] = second compound 0.003 µM, first compound 0.0316 µM
[26] = second compound 0.003 µM, first compound 0.1 µM
[27] = second compound 0.003 µM, first compound 0.316 µM
[28] = second compound 0.003 µM, first compound 1 µM
[29] = second compound 0.003 µM, first compound 3.16 µM
[30] = second compound 0.003 µM, first compound 10 µM
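Further: spheroids exposed to compounds for 7 days before readout.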
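Wherever viability, T/C is given: percent of vehicle control viability where 100% = DMSO-treated spheroids.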

Structure (SMILES)	IC50 (second compound 30 pM) [µM]	IC50 (second compound 94.9 pM) [µM]	IC50 (second compound 0.0003 µM) [µM]	IC50 (second compound 0.000949 µM) [µM]	IC50 (second compound 0.003 µM) [µM]	viability, T/C [1] [%]	viability, T/C [2] [%]	viability, T/C [3] [%]	viability, T/C [4] [%]	viability, T/C [5] [%]	viability, T/C [6] [%]	viability, T/C [7] [%]	viability, T/C [8] [%]	viability, T/C [9] [%]	viability, T/C [10] [%]	viability, T/C [11] [%]	viability, T/C [12] [%]	viability, T/C [13] [%]	viability, T/C [14] [%]	viability, T/C [15] [%]	also measured
Cc1cc(C)c(CNC(=O)c2cc(-c3ccc(CN4CCOCC4)cc3)cc3c2cnn3C2CCCC2)c(=O)[nH]1 + COc1cc2c(cc1O)CCNC21CSC2c3c(OC(C)=O)c(C)c4c(c3C(COC1=O)N1C(O)C3Cc5cc(C)c(OC)c(O)c5C(C21)N3C)OCO4	> 10	> 10	> 10	< 0.0316	< 0.0316	103	106	87.3	78.7	81.5	87.8	100	93.8	89	77.6	86.4	78.8	76.2	74.5	76.2	viability, T/C [16]: 79.6%; viability, T/C [17]: 72.7%; viability, T/C [18]: 66.4%; viability, T/C [19]: 4.8%; viability, T/C [20]: 6.16%; viability, T/C [21]: 5.29%; viability, T/C [22]: 6.16%; viability, T/C [23]: 3.09%; viability, T/C [24]: 1.36%; viability, T/C [25]: 0.35%; viability, T/C [26]: 0.31%; viability, T/C [27]: 0.24%; viability, T/C [28]: 0.18%; viability, T/C [29]: 0.16%; viability, T/C [30]: 0.28%
COc1ccc([C@@H](O)c2cc(-c3ncnc4cc(N5CCOCC5)ccc34)c(F)cc2Cl)nn1 + COc1cc2c(cc1O)CCNC21CSC2c3c(OC(C)=O)c(C)c4c(c3C(COC1=O)N1C(O)C3Cc5cc(C)c(OC)c(O)c5C(C21)N3C)OCO4	9.85	5.11	0.427	< 0.0316	< 0.0316	118	107	88.5	84.7	64	49.5	108	92	89.9	69.5	55.9	41.5	83.5	79.5	54.1	viability, T/C [16]: 32.4%; viability, T/C [17]: 4.29%; viability, T/C [18]: 0.28%; viability, T/C [19]: 5.23%; viability, T/C [20]: 2.87%; viability, T/C [21]: 0.68%; viability, T/C [22]: 0.1%; viability, T/C [23]: 0.07%; viability, T/C [24]: 0.18%; viability, T/C [25]: 0.27%; viability, T/C [26]: 0.3%; viability, T/C [27]: 0.22%; viability, T/C [28]: 0.18%; viability, T/C [29]: 0.16%; viability, T/C [30]: 0.28%
